Measurements reported in article PMC8271706, “Structural Characterization and Assessment of Anti-Inflammatory and Anti-Tyrosinase Activities of Polyphenols from Melastoma normale” (Molecules, 2021).

Legend:
[1] = system: mushroom tyrosinase; assay: Anti-tyrosinase activity, L-DOPA as substrate; assay type: biochemical; details: for IC50: IC50 ± SD, pH 6.8, read-out: Tyrosinase inhibitory activity IC50
Method: All compounds were investigated for potential tyrosinase inhibitory activity.
The anti-tyrosinase activities of the isolates were investigated according to the procedure described by Aoki et al. with slight modifications. […] Solution of L-DOPA at 5.0 mM, mushroom tyrosinase at 100 U/mL, as well as samples at different concentrations were prepared in phosphate buffer (pH 6.8). 20 µL of the sample solution and 10 µL of mushroom tyrosinase solution were mixed and pre-incubated at 37 °C for 10 min, then 40 µL of L-DOPA solution was added and incubated at 37 °C for 5 min. The absorbance was measured at 475 nm using the Spark 10M multimode microplate reader (Tecan Trading AG, Zurich, Switzerland). All assays were repeated three times and each time in triplicate. The percent inhibition of tyrosinase activity was calculated using the following formula:Tyrosinase inhibition (%) = [1 − (T − T0)/(C − C0)] × 100 where T represents the absorbance with sample and tyrosinase; T0 represents the absorbance with sample but no tyrosinase; C represents the absorbance with tyrosinase but no sample; C0 represents the absorbance without tyrosinase and sample.

[2] = system: LPS-stimulated RAW 264.7 cells; assay: NO production by LPS-stimulated RAW 264.7 cells (Griess); assay type: cell-based; details: Mus musculus, RAW264.7, read-out: IC50 for the inhibition of NO production
Method: Four new compounds 1–4 were tested for potential anti-inflammatory activity by measuring the inhibition of the nitric oxide (NO) production. […] The IC50 values for the inhibition of NO production by compounds 1–4 are all > 50 μM. […] From the experimental results and literature data, the flavonoids in the title plant have better anti-inflammatory activity than ellagitannins, it may be the active ingredient corresponding to the anti-inflammatory effect of this plant.
The RAW 264.7 cells were cultivated in DMEM supplemented with 10% FBS at 37 °C in a humidified atmosphere of 5% CO2 for 24 h. Cells in 24-well plate (5 × 10^4 cells/well) were treated with 200 ng/mL LPS and the test compounds. After 22 h, the media were collected, and the level of nitrite was measured using the Griess Reagent System (Promega, Madison, WI, USA).

[3] = cited from earlier work

**Q.** Which “tyrosinase inhibitory activity (in words)” value [1] does the source give for `CCOC(=O)C1(O)C(=O)C2=C3C(=O)OC(C2OCC)C2OC(=O)c4c(c(O)c(O)c(O)c4C31)-c1c(cc(O)c(O)c1O)C(=O)OC1COC(=O)c3cc(O)c(O)c(O)c3-c3c(cc(O)c(O)c3O)C(=O)OC12` (stereo not drawn) [Compound 1, Whiskey tannin C] here?
**A.** weak

**Q.** And the IC50 [1]?
**A.** 426 ± 11.3 µM

**Q.** What about the IC50 [2] of the same molecule?
**A.** > 50 µM

**Q.** Which results are given for `COc1c(O)cc(C(=O)O[C@@H]2O[C@H](COC(=O)c3cc(O)c(O)c(O)c3)[C@@H](O)[C@@H]3OC(=O)c4cc(O)c(O)c(O)c4-c4c(cc(O)c(O)c4O)C(=O)O[C@@H]23)cc1O` [Compound 2, 1-O-(4-methoxygalloyl)-6-O-galloyl-2,3-O-(S)-hexahydroxydiphenoyl-β-D-glucose]?
**A.** IC50 [1]: 241 ± 6.23 µM; IC50 [2]: > 50 µM

**Q.** Which IC50 [1] does the source give for `COc1cc(C(=O)OC[C@H]2O[C@@H](OC(=O)c3cc(O)c(O)c(O)c3)[C@@H]3OC(=O)c4cc(O)c(O)c(O)c4-c4c(cc(O)c(O)c4O)C(=O)O[C@H]3[C@@H]2O)cc(O)c1O` [Compound 3, 1-O-galloyl-6-O-(3-methoxygalloyl)-2,3-O-(S)-hexahydroxydiphenoyl-β-D-glucose] here?
**A.** 154 ± 3.63 µM

**Q.** What about the IC50 [2] of the same molecule?
**A.** > 50 µM

**Q.** Which IC50 [1] does the source give for `COc1cc(C(=O)OC[C@H]2O[C@@H](OC(=O)c3cc(O)c(O)c(O)c3)[C@@H]3OC(=O)c4cc(O)c(O)c(O)c4-c4c(cc(O)c(O)c4O)C(=O)O[C@H]3[C@@H]2O)ccc1O` [Compound 4, 1-O-galloyl-6-O-vanilloyl-2,3-O-(S)-hexahydroxydiphenoyl-β-D-glucose] here?
**A.** 125 ± 3.12 µM

**Q.** And the IC50 [2]?
**A.** > 50 µM

**Q.** Which results are given for `O=c1c(O)c(-c2ccc(O)cc2)oc2cc(O)cc(O)c12` [Compound 7, kaempferol]?
**A.** IC50 [1]: 1900 ± 38.2 µM; anti-inflammatory activity (in words) [3]: have anti-inflammatory activity

**Q.** With `C[C@@H]1O[C@@H](Oc2c(-c3ccc(O)cc3)oc3cc(O)cc(O)c3c2=O)[C@H](O)[C@H](O)[C@H]1O` [Compound 8, kaempferol-3-rhamnoside] as the molecule, how does the “tyrosinase inhibitory activity (in words)” value [1] read?
**A.** no significant

**Q.** And the IC50 [1]?
**A.** > 2000 µM

**Q.** And the “anti-inflammatory activity (in words)” value [3]?
**A.** have no anti-inflammatory activity

**Q.** For `O=c1c(O)c(-c2ccc(O)c(O)c2)oc2cc(O)cc(O)c12` [Compound 10, quercetin], which “tyrosinase inhibitory activity (in words)” value [1] is on record?
**A.** significant

**Q.** And the “anti-inflammatory activity (in words)” value [3]?
**A.** have anti-inflammatory activity

**Q.** With `C[C@@H]1O[C@@H](Oc2c(-c3ccc(O)c(O)c3)oc3cc(O)cc(O)c3c2=O)[C@H](O)[C@H](O)[C@H]1O` [Compound 11, quercetin-3-O-α-L-rhamnoside] as the molecule, how does the IC50 [1] read?
**A.** 98.2 ± 2.31 µM

**Q.** And the “anti-inflammatory activity (in words)” value [3]?
**A.** have no anti-inflammatory activity

**Q.** Which “tyrosinase inhibitory activity (in words)” value [1] does the source give for `C[C@@H]1O[C@@H](Oc2c(-c3cc(O)c(O)c(O)c3)oc3cc(O)cc(O)c3c2=O)[C@H](O)[C@H](O)[C@H]1O` [Compound 12, myricetin-3-O-α-L-rhamnopyranoside] here?
**A.** no significant

**Q.** What about the IC50 [1] of the same molecule?
**A.** 905 ± 20.4 µM

**Q.** And the “anti-inflammatory activity (in words)” value [3]?
**A.** have anti-inflammatory activity
